Experiments:
pentosidine formation = assay: AGEs (pentosidine) formation inhibiting effect in plasma from dialysis patients; type: biochemical, human; conditions: for Pentosidine formation: 5 mM; for pentosidine formation suppression: plasma from the patients with dialysis
Experimental: Before dialysis, blood samples were obtained from non-diabetic volunteer dialysis patients with renal failure, and fresh heparinized plasma samples were prepared therefrom Pooled plasma obtained from several patients (n=3˜5) was served to the test. 4-(5-phenyltetrazol-1-ylmethyl)-morpholine (Compound 1), 5-methyl-1-(5-phenyltetrazol-1-ylmethyl)-3a,6a-dihydro-1H-pyrrolo[3,4-d][1,2,3]triazole-4,6-dione (Compound 2) or (5-phenyltetrazol-1-yl)methanol (Compound 3) adjusted to a designed concentration ([…]), in DMSO solution (100 μl), was added to the pooled plasma (900 μl) and incubated at 37° C. for 7 days in the presence of air. Then, the amount of pentosidine was measured to estimate the suppressive effect on the glycation of protein.
Measurement of the amount of pentosidine was made as follows: to each incubated sample (50 μL) was added an equal volume of 10% trichloroacetic acid, followed by centrifugation at 5000 g for 5 minutes; after removal of the supernatant, the pellet was washed by 5% trichloroacetic acid (300 μL); the pellet was dried under reduced pressure and then subjected to hydrolysis in 6N HCI solution (100 μL) at 110° C. under nitrogen atmosphere for 16 hours; to the hydrolysate, 5N NaOH (100 μL) and 0.5 M phosphate buffer (pH 7.4) (200 μL) were added, followed by filtration through a porefilter with a pore size of 0.5 μm and dilution with PBS. The concentration of free pentosidine was determined by reversed-phase HPLC using a fluorescence detector (RF-10A, Shimazu Seisakusho) (Miyata, T. et al.: Proc. Natl. Acad. Sci. USA, 93, 2353-2358, 1996). The effluent was monitored at 335/385 nm of excitation/emission wavelength. Synthetic pentosidine was used as the standard. The detection limit of pentosidine was 0.1 pmol/mg protein.
The inhibiting effect was estimated by comparing with positive control (aminoguanidine and pyridoxamine (Sigma)) reacted in the same manner as 4-(5-phenyltetrazol-1-yl-methyl)-morpholine (Compound 1), 5-methyl-1-(5-phenyltetrazol-1-ylmethyl)-3a,6a-dihydro-1H-pyrrolo[3,4-d][1,2,3]triazole-4,6-dione (Compound 2) and (5-phenyltetrazol-1-yl)methanol (Compound 3).

[1] = Vitamin B6 (PLP; pyridoxal phosphate) trapping; type: biochemical; conditions: 500 μM compound, 50 μM PLP, PBS
Experimental: To a solution of vitamin B6, the compound of this invention is added, and after a certain period of time, an amount of vitamin B6 remained is determined.
4-(5-phenyltetrazol-1-ylmethyl)-morpholine (Compound 1), 5-methyl-1-(5-phenyltetrazol-1-ylmethyl)-3a,6a-dihydro-1H-pyrrolo[3,4-d][1,2,3]triazol-4,6-dione (Compound 2) and (5-phenyltetrazol-1-yl)methanol (Compound 3) as well as aminoguanidine as the positive control were each dissolved in DMSO in a designed concentration to make a sample solution. DMSO itself was used as the negative control. In addition, pyridoxal phosphate (PLP) was dissolved in purified-water to make a designed concentration. PBS was added to each of the test compound, the positive control and the negative control, to make a final concentration of 500 μM. The PLP solution as above prepared was added to each of the resultant solution to make a final concentration of 50 μM for preparation of the PLP reaction solution. Using HPLC, the amount of PLP in the PLP reaction solution was determined after 0.1 and 10 hours, from which the PLP trapping amount of each test compound was ascertained.
The analysis of PLP using HPLC was carried out by separation with reverse-phase C18 column (4.6×250 mm, 5 μm; Waters) and by using a fluorescence detector (RF-10A; Shimazu Seisakusho; excitation wavelength, 300 nm and fluorescence wavelength, 400 nm). In the mobile phase, the flow rate was 0.6 mL/min and the concentration of buffer B was varied from 0% to 3% in 25 minutes (buffer A: 0.10% trifluoroacetic acid; buffer B: 80% acetonitrile containing 0.08% trifluoroacetic acid).

[2] = Suppressive effect on the hydroxylation of phenylalanine with hydroxy radical; type: biochemical; conditions: in comparison with pyridoxamine as positive control; 0.1, 0.5, 2.5 mM
Experimental: Phenylalanine (final concentration: 1 mM), test compound (final concentration: 0.1, 0.5, 2.5 mM), hydrogen peroxide (final concentration: 5 mM) and cupric sulfate (final concentration: 0.1 mM) were dissolved in 200 mM of phosphate buffer (pH7.4) (total volume 500 μL), followed by incubation at 37° C. for 4 hours. Then, DTPA (final concent-ration: 1 mM) and 260 unit of catalase were added thereto to interrupt the reaction. The amounts of o-tyrosine and m-tyrosine formed were determined by HPLC in the following manner: after a designed period of time, the reaction mixture was diluted to 100 folds; 20 μL of the dilution was injected onto HPLC, separation was made with C18 column (4.6×250 mm, 5 μm; Nomura Kagaku) and detection was effected using a fluorescence detector (RF-10A: Shimazu Seisakusho) under the condition of an excitation wavelength of 275 nm and a fluorescence wavelength of 305 nm. In the mobile phase, the flow rate was 0.6mL/min and the concentration of buffer B was varied from 6.5% to 10% in 25 minutes (buffer A: 0.10% trifluoroacetic acid; buffer B: 80% acetonitrile containing 0.08% trifluoroacetic acid).

[3] = Suppressing effect on the nitration of tyrosine with peroxynitrite; type: biochemical; conditions: in comparison with pyridoxamine as positive control; 0.1, 0.5, 2.5 and 5 mM
Experimental: According to the method of Pannala, A.S. et al. (Free Radic. Biol. Med., 24:594-606, 1998), the examination was carried out. Namely, tyrosine (final concentration: 100 μM), the test compound (final concentration: 0.1, 0.5, 2.5 and 5 mM) and peroxynitrite (Dojin Kagaku) (final concentration: 500 μM) were dissolved in 200 mM of phosphate buffer (pH7.4) (liquid volume 500 μL) and incubated at 37° C. for 15 minutes. After incubation, the nitrotyrosine formation was determined with HPLC in the following manner: after a predifined time, the reaction mixture (20 μL) was injected onto HPLC, separation was made with C18 column (4.6×250 mm, 5 μm: Waters) and the detection was effected using a ultraviolet detector (RF-10A: Shimazu Seisakusho) at a wavelength of 280 nm. In the mobile phase, the flow rate was 0.6 mL/min and the concentration of buffer B was varied from 5.0% to 30% in 30 minutes (buffer A: 0.10% trifluoroacetic acid; buffer B: 80% acetonitrile containing 0.08% trifluoroacetic acid). 4-Hydroxy-3-nitrobenzoic acid (100 μM) was used as the internal standard.

[4] = Absorbability examination, oral administration to rat; type: in vivo; conditions: 50 mg/kg oral
Experimental: For 4-(5-phenyltetrazol-1-yl methyl)-morpholine (compound 1) and (5-phenyltetrazol-1-yl)methanol (compound 3), their sorbability were examined. Each compounds are suspended in carboxymethyl cellulose in given concentration to prepare sample for oral administration. Then each samples were administered in the ratio of 50 mg/kg to rat using sonde. Five Wister rats (male, 8 weeks aged, closed colony) were used every one group. At one hour, 2 hours, 6 hours and 24 hours after the administration of compound, blood was obtained. The obtained blood samples were immediately cetrifuged at 3000 rpm for 15 minutes to obtain the blood plasma and the concentration of the compound in the specimen was quantitated by HPLC. Briefly, to 100 μL of obtained blood plasma was added to 200 μL of acetonitrile, centrifuged at 12000 rpm for 10 minutes to obtain supernatant, deproteinized and served to HPLC. The measuring condition of HPLC was selected from suitable condition for each compounds to separate and quantify. For example, in case of 4-(5-phenyltetrazol-1-yl methyl)-morpholine (compound 1), separated with reverse-phase C18 column (4.6×250 mm, 5 μm: Waters), and then detected using ultraviolet detector (RF-10A: Shimazu Seisakusho) at 240 nm of wavelength to quantify. In mobile phase, the flow rate is 0.8 mL/min and solvent is water: acetonitrile.

[5] = Acute toxicity examination, single oral administration to mouse; conditions: male, in vivo, ICR mice, single oral administration
Experimental: (§1) For 4-(5-phenyltetrazol-1-ylmethyl)-morpholine (compound 1) and (5-phenyltetrazol-1-yl) methanol (compound 3), acute toxicity test was carried out using mice. Each compounds were suspended in carboxymethyl cellulose in given concentration to prepare sample for oral administration. Then single oral administration was done to mouse. The dose is 100, 250, 500, 1000 and 2000 mg/kg. Five ICR mice (male , 8 weeks aged, closed colony) were used in each group. The test material was administrated to determine LD50 value.

ICR mice = assay: as above; conditions: in vivo, po
Experimental: as §1

[6] = plasma from dialysis patients, 37° C., 7 days, DMSO negative control 2.960

| PLP trapping [1] | SMILES | Pentosidine formation (pentosidine formation; [6]) [nmol/mL] | pentosidine formation suppression (pentosidine formation) | Pentosidine formation (pentosidine formation; same manner as Table 2) [nmol/mL] | other results |
| --- | --- | --- | --- | --- | --- |
| remarkable PLP trapping | N=C(N)NN [Aminoguanidine, aminoguanidine, reference compound] | 2.604 | – | – | – |
| none | CN1C(=O)C2N=NN(Cn3nnnc3-c3ccccc3)C2C1=O (stereo not drawn) [Compound 2, 5-methyl-1-(5-phenyltetrazol-1-ylmethyl)-3a,6a-dihydro-1H-pyrrolo[3,4-d][1,2,3]triazole-4,6-dione] | 0.320 | suppressed remarkably | – | hydroxylation of phenylalanine with hydroxy radical, suppression [2]: suppressed remarkably; nitrotyrosine formation, suppression [3]: suppressed remarkably |
| – | c1ccc(-c2nnnn2CN2CCNCC2)cc1 [Compound 4, 1-(5-phenyltetrazol-1-ylmethyl)-piperazine] | – | suppressed remarkably | 0.234 | – |
| – | CN1CCN(Cn2nnnc2-c2ccccc2)CC1 [Compound 5, 1-methyl-4-(5-phenyltetrazol-1-ylmethyl)-piperazine] | – | suppressed remarkably | 0.201 | – |
| – | c1ccc(-c2nnnn2CN2CCSCC2)cc1 [Compound 6, 4-(5-phenyltetrazol-1-ylmethyl)-thiomorpholine] | – | suppressed remarkably | 0.149 | – |
| – | c1ccc(-c2nnnn2CN2CCN(Cn3nnnc3-c3ccccc3)CC2)cc1 [Compound 7, 1,4-bis-(5-phenyltetrazol-1-ylmethyl)-piperazine] | – | suppressed remarkably | 0.103 | – |
| – | Cc1ncc(CO)c(CN)c1O [Pyridoxamine, pyridoxamine, reference compound] | 2.280 | – | – | – |

| SMILES | PLP trapping [1] | Pentosidine formation (pentosidine formation; [6]) [nmol/mL] | pentosidine formation suppression (pentosidine formation) | Pentosidine formation (pentosidine formation; same manner as Table 2) [nmol/mL] | other results |
| --- | --- | --- | --- | --- | --- |
| OCn1nnnc1-c1ccccc1 [Compound 3, (5-phenyltetrazol-1-yl)-methanol] | none | 0.026 | suppressed remarkably | – | hydroxylation of phenylalanine with hydroxy radical, suppression [2]: suppressed remarkably; nitrotyrosine formation, suppression [3]: suppressed remarkably; sorbability (plasma concentration after oral administration) [4]: good sorbability; LD50 [5]: > 2000 mg/kg; toxicity (ICR mice): lower toxicity |
